Columns and labels:
[1] = system: CDK8 (phosphorylation of STAT1 at serine 727 in A549 cells); assay: Cell based Phospho-STAT1 assay (IFNγ-stimulated A549 cells, AlphaLISA); conditions: Homo sapiens, A549, A549 cells, phospho-STAT1 after IFNγ stimulation
Procedure, shortened: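 A549 cells given serial compound dilutions for 1 h at 37 °C, then stimulated with IFNγ at 10 ng/mL final for 30 min. Lysate STAT1 Ser727 phosphorylation measured by AlphaLISA; % inhibition vs stimulated/unstimulated DMSO controls, IC50 by nonlinear regression.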

[2] = system: CDK8 (TCF/LEF luciferase reporter in HCT116 cells); assay: Cell based TCF/LEF reporter assay (HCT116+TCF/LEF luciferase); conditions: Homo sapiens, HCT-116, 24 h
Text: Determine Inhibitor Activity Against CDK8 in Cell Based TCF/LEF Reporter Assay
The colorectal carcinoma cell line HCT116 was stably transduced with lentivirus encoding the TCF/LEF promoter upstream of a luciferase reporter gene (Qiagen) and single cell clones expressing this construct (referred to as HCT116+TCF/LEF) were isolated. HCT116 express endogenous mutant β-catenin^3, resulting in up-regulation of transcription through the TCF/LEF promoter. Expression of the TCF/LEF reporter construct in HCT116 results in constitutive expression of luciferase. Treatment of the cells with inhibitors of components of the β-catenin signaling pathway (such as CDK8) results in decreased expression of luciferase. The assay is performed as follows. The HCT116+TCF/LEF cell line is seeded in a 96 well plate in 50 μL of culture media at 1×10^4 cells/well and incubated at 37° C. overnight. Serial dilutions of compounds (in total volume of 50 μL culture media) are added to the cells and incubated at 37° C. for 24 hours. 4 wells of DMSO treated cells serve as high controls and cells treated with 10 uM of the reference compound CCT251545 (a known CDK8 inhibitor)^4 serve as low controls. The viability of the cells is assayed by the addition of […] reagent (Promega) followed by 30 minute incubation at 37° C. and quantification of the fluorescent signal (Ex400/Em505). The luciferase expression is then assayed by the addition of 25 μL ONE-Glo reagent (Promega) followed by 10 minute incubation at room temperature and quantification of the luminescence signal. The luminescence signal is normalized to the fluorescence signal to correct for any loss in cell viability over the 24 hour compound incubation period. The percentage inhibition at individual concentrations relative to high and low controls is calculated. The data are analyzed by using nonlinear regression to generate IC50 values.

Row | IC50 [1] [nM] | IC50 [2] [nM] | SMILES
1 | 0.1 to 100 | 0.1 to 100 | CC(C)(O)c1ccc(-c2cnn3ccnc(C4=CCC(C#N)CC4)c23)cc1 (centres unmarked) [Compound P-0040, 4-(3-(4-(2-hydroxypropan-2-yl)phenyl)pyrazolo[1,5-a]pyrazin-4-yl)cyclohex-3-ene-1-carbonitrile]
2 | 100 to 1000 | 1000 to 10000 | COc1ccc2ccc(-c3cnn4ccnc(C5=CCC(C#N)CC5)c34)cc2n1 (centres unmarked) [Compound P-0165, 4-(3-(2-methoxyquinolin-7-yl)pyrazolo[1,5-a]pyrazin-4-yl)cyclohex-3-ene-1-carbonitrile]
3 | 0.1 to 100 | 0.1 to 100 | CS(=O)(=O)Nc1ccc2cc(-c3cnn4ccnc(C5=CCC(C#N)CC5)c34)ccc2n1 (centres unmarked) [Compound P-0151, N-(6-(4-(4-cyanocyclohex-1-ene-1-yl)pyrazolo[1,5-a]pyrazin-3-yl)quinolin-2-yl)methanesulfonamide]
4 | 0.1 to 100 | 0.1 to 100 | N#CC1CC=C(c2c(-c3ccc(-n4cccn4)cc3)cnc3[nH]ccc23)CC1 (centres unmarked) [Compound P-0203, 4-(5-(4-(1H-pyrazol-1-yl)phenyl)-1H-pyrrolo[2,3-b]pyridin-4-yl)cyclohex-3-ene-1-carbonitrile]
5 | 0.1 to 100 | 0.1 to 100 | N#CC1CCC(c2nccn3ncc(-c4ccc(-c5cnn(CCF)c5)cc4)c23)CC1 (centres unmarked) [Compound P-0007, (1s,4s)-4-(3-(4-(1-(2-fluoroethyl)-1H-pyrazol-4-yl)phenyl)pyrazolo[1,5-a]pyrazin-4-yl)cyclohexane-1-carbonitrile]
6 | 0.1 to 100 | 0.1 to 100 | N#CC1CC=C(c2cccn3ncc(-c4ccc(N5CCOCC5)c(F)c4)c23)CC1 (centres unmarked) [Compound P-0125, 4-(3-(3-fluoro-4-morpholinophenyl)pyrazolo[1,5-a]pyridin-4-yl)cyclohex-3-ene-1-carbonitrile]
7 | 0.1 to 100 | 0.1 to 100 | N#CC1CC=C(c2cccn3ncc(-c4ccc(OCC(O)CN5CCOCC5)cc4)c23)CC1 (centres unmarked) [Compound P-0178, 4-(3-(4-(2-hydroxy-3-morpholinopropoxy)phenyl)pyrazolo[1,5-a]pyridin-4-yl)cyclohex-3-ene-1-carbonitrile]
8 | 0.1 to 100 | 0.1 to 100 | N#CC1CC=C(c2nccn3ncc(-c4cc5ccccc5s4)c23)CC1 (centres unmarked) [Compound P-0073, 4-(3-(benzo[b]thiophen-2-yl)pyrazolo[1,5-a]pyrazin-4-yl)cyclohex-3-ene-1-carbonitrile]
9 | 0.1 to 100 | 0.1 to 100 | COc1ccc2cc(-c3cnc4[nH]ccc4c3C3=CCC(C#N)CC3)ccc2n1 (centres unmarked) [Compound P-0190, 4-(5-(2-methoxyquinolin-6-yl)-1H-pyrrolo[2,3-b]pyridin-4-yl)cyclohex-3-ene-1-carbonitrile]
10 | 100 to 1000 | 100 to 1000 | N#CC1CCN(c2cccn3ncc(-c4ccc(OCc5ccccc5)cc4)c23)CC1 [Compound P-0267, 1-(3-(4-(benzyloxy)phenyl)pyrazolo[1,5-a]pyridin-4-yl)piperidine-4-carbonitrile]
11 | 0.1 to 100 | 0.1 to 100 | N#CC1CC=C(c2nccn3ncc(-c4ccc5c(cnn5C(F)F)c4)c23)CC1 (centres unmarked) [Compound P-0114, 4-(3-(1-(difluoromethyl)-1H-indazol-5-yl)pyrazolo[1,5-a]pyrazin-4-yl)cyclohex-3-ene-1-carbonitrile]
12 | 0.1 to 100 | 0.1 to 100 | CC(C)(O)Cn1ncc2cc(-c3cnn4ccnc(C5CCC(C#N)CC5)c34)ccc21 (centres unmarked) [Compound P-0062, (1s,4s)-4-(3-(1-(2-hydroxy-2-methylpropyl)-1H-indazol-5-yl)pyrazolo[1,5-a]pyrazin-4-yl)cyclohexane-1-carbonitrile]
13 | 0.1 to 100 | 0.1 to 100 | CC(C)(C#Cc1cccn2ncc(-c3ccc(-c4cnn(CC5(C#N)CC5)c4)cc3)c12)C(N)=O [Compound P-0052, 4-(3-(4-(1-((1-cyanocyclopropyl)methyl)-1H-pyrazol-4-yl)phenyl)pyrazolo[1,5-a]pyridin-4-yl)-2,2-dimethylbut-3-ynamide]
14 | 100 to 1000 | 100 to 1000 | CC(C)(O)C#Cc1cccn2ncc(-c3cnn(-c4ccc(F)cc4)c3)c12 [Compound P-0283, 4-(3-(1-(4-fluorophenyl)-1H-pyrazol-4-yl)pyrazolo[1,5-a]pyridin-4-yl)-2-methylbut-3-yn-2-ol]
15 | 0.1 to 100 | 0.1 to 100 | COc1ccc(-c2cnn3cccc(C4CCC(C#N)CC4)c23)cc1 (centres unmarked) [Compound P-0137, 4-(3-(4-methoxyphenyl)pyrazolo[1,5-a]pyridin-4-yl)cyclohexane-1-carbonitrile]
16 | 0.1 to 100 | 0.1 to 100 | CC(C)(O)Cn1cc(-c2ccc(-c3cnc4[nH]ccc4c3N3CCC(C#N)CC3)cc2)cn1 [Compound P-0329, 1-(5-(4-(1-(2-hydroxy-2-methylpropyl)-1H-pyrazol-4-yl)phenyl)-1H-pyrrolo[2,3-b]pyridin-4-yl)piperidine-4-carbonitrile]
17 | 0.1 to 100 | 100 to 1000 | CS(=O)(=O)c1ccc(-c2cnn3cccc(C4=CCC(C#N)CC4)c23)cc1F (centres unmarked) [Compound P-0126, 4-(3-(3-fluoro-4-(methyl-sulfonyl)phenyl)pyrazolo[1,5-a]pyridin-4-yl)cyclohex-3-ene-1-carbonitrile]
18 | 0.1 to 100 | 0.1 to 100 | N#CC1CC=C(c2nccn3ncc(-c4ccc(Cl)cc4)c23)CC1 (centres unmarked) [Compound P-0090, 4-(3-(4-chlorophenyl)pyrazolo[1,5-a]pyrazin-4-yl)cyclohex-3-ene-1-carbonitrile]
19 | 0.1 to 100 | 0.1 to 100 | CC(C)(C#Cc1nccn2ncc(-c3ccc4cc(NS(C)(=O)=O)ccc4c3)c12)C(N)=O [Compound P-0115, 2,2-dimethyl-4-(3-(6-(methylsulfonamido)naphthalen-2-yl)pyrazolo[1,5-a]pyrazin-4-yl)but-3-ynamide]
20 | 0.1 to 100 | 0.1 to 100 | CC(C)(O)Cn1cc(-c2ccc(-c3cnn4ccnc(C5CCC(C#N)CC5)c34)c(F)c2)cn1 (centres unmarked) [Compound P-0001, (1s,4s)-4-(3-(2-fluoro-4-(1-(2-hydroxy-2-methylpropyl)-1H-pyrazol-4-yl)phenyl)pyrazolo[1,5-a]pyrazin-4-yl)cyclohexane-1-carbonitrile]
21 | 0.1 to 100 | 0.1 to 100 | CC(C)(C#Cc1nccn2ncc(-c3ccc(-c4cnn(CCCC#N)c4)cc3)c12)C(N)=O [Compound P-0456, 4-(3-(4-(1-(3-cyanopropyl)-1H-pyrazol-4-yl)phenyl)pyrazolo[1,5-a]pyrazin-4-yl)-2,2-dimethylbut-3-ynamide]
22 | 0.1 to 100 | 0.1 to 100 | CC(C)(O)Cn1cc(-c2ccc(-c3cnc4[nH]cc(Cl)c4c3N3CCC(C#N)CC3)cc2)cn1 [Compound P-0204, 1-(3-chloro-5-(4-(1-(2-hydroxy-2-methylpropyl)-1H-pyrazol-4-yl)phenyl)-1H-pyrrolo[2,3-b]pyridin-4-yl)piperidine-4-carbonitrile]
23 | 0.1 to 100 | 0.1 to 100 | COc1ccc(-c2cnn3ccnc(C4=CCC(C#N)CC4)c23)cc1F (centres unmarked) [Compound P-0104, 4-(3-(3-fluoro-4-methoxyphenyl)pyrazolo[1,5-a]pyrazin-4-yl)cyclohex-3-ene-1-carbonitrile]
24 | 0.1 to 100 | 0.1 to 100 | CC(C)(C#Cc1nccn2ncc(-c3ccc(-c4cnn(CCC#N)c4)cc3)c12)C(N)=O [Compound P-0004, 4-(3-(4-(1-(2-cyanoethyl)-1H-pyrazol-4-yl)phenyl)pyrazolo[1,5-a]pyrazin-4-yl)-2,2-dimethylbut-3-ynamide]
25 | 0.1 to 100 | 0.1 to 100 | Cn1cc(-c2ccc(-c3cnn4cccc(C#CC(C)(C)C#N)c34)cc2)cn1 [Compound P-0273, 2,2-dimethyl-4-(3-(4-(1-methyl-1H-pyrazol-4-yl)phenyl)pyrazolo[1,5-a]pyridin-4-yl)but-3-ynenitrile]
26 | 0.1 to 100 | 0.1 to 100 | N#CC1CCC(c2cccn3ncc(-c4ccc(N5CCOCC5)nc4)c23)CC1 (centres unmarked) [Compound P-0141, 4-(3-(6-morpholinopyridin-3-yl)pyrazolo[1,5-a]pyridin-4-yl)cyclohexane-1-carbonitrile]
27 | 0.1 to 100 | 0.1 to 100 | Cc1nc2ccc(-c3cnn4cccc(C5=CCC(C#N)CC5)c34)cc2s1 (centres unmarked) [Compound P-0214, 4-(3-(2-methylbenzo[d]thiazol-6-yl)pyrazolo[1,5-a]pyridin-4-yl)cyclohex-3-ene-1-carbonitrile]
28 | 100 to 1000 | 100 to 1000 | Cc1nc2ccc(-c3cnn4cccc(C#CC(C)(C)O)c34)cc2s1 [Compound P-0215, 2-methyl-4-(3-(2-methylbenzo[d]thiazol-6-yl)pyrazolo[1,5-a]pyridin-4-yl)but-3-yn-2-ol]

Reference: patent publication US10703757B2, “Compounds and methods for CDK8 modulation and indications therefor” (Plexxikon Inc., priority 2016, dated 2020)
